In paper PMC9430628 (Microbiology Spectrum, 2022):

What was measured:
[1] = system: rNA (N-acyl-L-amino acid amidohydrolase NA); assay: HPLC of OTalpha formed, Michaelis-Menten nonlinear fit; type: biochemical, Stenotrophomonas sp. CW117; details: PBS pH 7.2, 42 °C, 6 h; OTA 15-65 μg/L
[2] = system: T1, rADH3 (amidohydrolase ADH3); details: conditions not given here (as in the authors' earlier paper); cited from earlier work
T1 construct: gene H7691_12935

In the case of `C[C@@H]1Cc2c(Cl)cc(C(=O)N[C@@H](Cc3ccccc3)C(=O)O)c(O)c2C(=O)O1` [Ochratoxin A], the Km [1] is listed as 3.8 µM and the Km [2] is listed as 0.039 µM.
